Structures are written as SMILES. Where only a bound is given, the exact number is not on record here.

What all share (assay type): in vivo
Assay [1] concerns Stellaria media—Chickweed. In words: Pre-emergence herbicidal assay, 96 cell trays, glasshouse. As to conditions: 168 h, second trial (Table 2), assessed 7 days after treatment, read-out: % control of plant growth; for pest or weed control at 200 g/ha: 0.2 kg/ha; for pest or weed control at 1000 g/ha: 1 kg/ha; for pest or weed control at 5000 g/ha: 5 kg/ha. The protocol: (§1) The compounds were screened at three concentrations (0.2, 1 and 5 kg/ha) against 2 weed species (Stellaria media—Chickweed and Lolium perenne). The seeds were sown in the cells of 96 cell trays (4-6 seeds per cell). For the pre-emergence assay, 75 μL of a suspension of the test compound, at the above doses, was added on top of the soil 1 day after sowing. For the post-emergence assay, the seedlings were sprayed with 200 μL of a suspension of the test compound two weeks after sowing. The formulation used is 25% acetone and 75% water/0.01% Tween 20. Each treatment was replicated three times. The plants were kept in a glasshouse (uncontrolled conditions) and assessed 7 days after treatment. A small number of compounds were tested in a first trial. A larger number of compounds were tested in a second trial. The assessment was based on the % control of plant growth in each cell.

Assay [2] relates to Lolium perenne. Described as above. As to conditions: 168 h, second trial (Table 2), Lollium, assessed 7 days after treatment, read-out: % control of plant growth; for pest or weed control at 200 g/ha: 0.2 kg/ha; for pest or weed control at 1000 g/ha: 1 kg/ha; for pest or weed control at 5000 g/ha: 5 kg/ha. How it is done:
as §1

The subject of assay [3] is Stellaria media—Chickweed. In words: Post-emergence herbicidal assay, 96 cell trays, glasshouse. The conditions noted are these: 168 h, second trial (Table 2), assessed 7 days after treatment, read-out: % control of plant growth; for pest or weed control at 200 g/ha: 0.2 kg/ha; for pest or weed control at 1000 g/ha: 1 kg/ha; for pest or weed control at 5000 g/ha: 5 kg/ha. How it is done: as §1

For assay [4], the system named is Lolium perenne. Described as above. As to conditions: 168 h, second trial (Table 2), Lollium, assessed 7 days after treatment, read-out: % control of plant growth; for pest or weed control at 200 g/ha: 0.2 kg/ha; for pest or weed control at 1000 g/ha: 1 kg/ha; for pest or weed control at 5000 g/ha: 5 kg/ha. The protocol:
as §1

With `CCOC(=O)C(C)N1C(=O)C2(CC2)Oc2cc(F)c(N3C(=O)C=C(C(F)(F)F)C3=O)cc21` (stereo not drawn) [Example 20], the pest or weed control at 200 g/ha in assay [1] was less than 20%; with Lolium perenne [2] it was less than 20%; in assay [3], 20 to 80%; in the assay on Lolium perenne [4] it was less than 20%. For the same compound, the pest or weed control at 1000 g/ha was 20 to 80% in assay [1], less than 20% in the assay with Lolium perenne [2], 80 to 100% in assay [3] and less than 20% with Lolium perenne [4]. The pest or weed control at 5000 g/ha in assay [1] was 20 to 80%; in the assay on Lolium perenne [2], less than 20%; in assay [3], 80 to 100%; in the assay on Lolium perenne [4] it was less than 20%.
Turning to `CCCN1C(=O)C2(CC2)Oc2cc(F)c(N3C(=O)c4ccc(F)cc4C3=O)cc21` [Example 22], the pest or weed control at 200 g/ha was 80 to 100% in assay [1], less than 20% in the assay with Lolium perenne [2], 80 to 100% in assay [3] and 20 to 80% with Lolium perenne [4]. In addition, the pest or weed control at 1000 g/ha in assay [1] lay within 80 to 100%; in the assay with Lolium perenne [2], 20 to 80%; in assay [3], 80 to 100%; in the assay with Lolium perenne [4], 20 to 80%. For the same compound, the pest or weed control at 5000 g/ha in assay [1] lay in the range of 80 to 100%; in the assay on Lolium perenne [2], 20 to 80%; in assay [3], 80 to 100%; in the assay with Lolium perenne [4] it was 80 to 100%.
For the compound `C#CCN1C(=O)C2(CCC2)Oc2cc(F)c(N3C(=O)c4ccc(F)cc4C3=O)cc21` [Example 23], the pest or weed control at 200 g/ha in assay [1] is less than 20%; with Lolium perenne [2], less than 20%; in assay [3] it was 80 to 100%; in the assay on Lolium perenne [4], less than 20%. In addition, the pest or weed control at 1000 g/ha is 80 to 100% in assay [1], less than 20% with Lolium perenne [2], 80 to 100% in assay [3] and less than 20% with Lolium perenne [4]. Moreover, the pest or weed control at 5000 g/ha in assay [1] was 80 to 100%; with Lolium perenne [2], 20 to 80%; in assay [3], 80 to 100%; in the assay with Lolium perenne [4], less than 20%.
Take `C#CCN1C(=O)C2(CCC2)Oc2cc(F)c(N3C(=O)C=C(C(F)(F)F)C3=O)cc21` [Example 24]: the pest or weed control at 200 g/ha (in assay [1]; in the assay with Lolium perenne [2]; in assay [3]; in the assay with Lolium perenne [4]) was less than 20% each time. In addition, the pest or weed control at 1000 g/ha was 20 to 80% in assay [1], 20 to 80% in the assay on Lolium perenne [2], less than 20% in assay [3] and less than 20% in the assay on Lolium perenne [4]. Also, the pest or weed control at 5000 g/ha in assay [1] was 20 to 80%; in the assay on Lolium perenne [2], 20 to 80%; in assay [3], less than 20%; with Lolium perenne [4] it was less than 20%.
Regarding `C#CCN1C(=O)C2(CN(C(=O)OCc3ccccc3)C2)Oc2cc(F)c(N3C(=O)c4ccc(F)cc4C3=O)cc21` [Example 25], the pest or weed control at 200 g/ha is 20 to 80% in assay [1], less than 20% in the assay on Lolium perenne [2], less than 20% in assay [3] and less than 20% with Lolium perenne [4]. The pest or weed control at 1000 g/ha in assay [1] is 20 to 80%; in the assay with Lolium perenne [2], less than 20%; in assay [3], less than 20%; in the assay on Lolium perenne [4], less than 20%. For the same compound, the pest or weed control at 5000 g/ha was 20 to 80% in assay [1], less than 20% in the assay on Lolium perenne [2], less than 20% in assay [3] and less than 20% in the assay with Lolium perenne [4].
As to `O=C1c2ccc(F)cc2C(=O)N1c1cc2c(cc1F)OC1(CC1)C(=O)N2CC#CI` [Example 30, 5-Fluoro-2-(7-fluoro-4-(3-iodoprop-2-yn-1-yl)-3-oxo-3,4-dihydrospiro[benzo[b][1,4]oxazine-2,1′-cyclopropan]-6-yl)isoindoline-1,3-dione], the pest or weed control at 200 g/ha in assay [1] was 80 to 100%; in the assay on Lolium perenne [2] it was 20 to 80%; in assay [3], 80 to 100%; with Lolium perenne [4] it was less than 20%. Further, the pest or weed control at 1000 g/ha is 80 to 100% in assay [1], 20 to 80% with Lolium perenne [2], 80 to 100% in assay [3] and less than 20% in the assay on Lolium perenne [4]. Also, the pest or weed control at 5000 g/ha in assay [1] is 80 to 100%; in the assay on Lolium perenne [2], 80 to 100%; in assay [3] it was 80 to 100%; in the assay on Lolium perenne [4], less than 20%.
Consider `C#CCN1C(=O)C2(CCC2)Oc2cc(F)c(-n3c(=O)cc(C(F)(F)F)[nH]c3=O)cc21` [Example 33, 3-(7-Fluoro-3-oxo-4-(prop-2-yn-1-yl)-3,4-dihydrospiro[benzo[b][1,4]oxazine-2,1′-cyclobutan]-6-yl)-6-(trifluoromethyl)pyrimidine-2,4(1H,3H)-dione], for which the pest or weed control at 200 g/ha (in assay [1]; in the assay on Lolium perenne [2]; in assay [3]; in the assay on Lolium perenne [4]) was less than 20% throughout. Besides, the pest or weed control at 1000 g/ha in assay [1] was 20 to 80%; in the assay with Lolium perenne [2] it was less than 20%; in assay [3], less than 20%; with Lolium perenne [4], less than 20%. Moreover, the pest or weed control at 5000 g/ha in assay [1] is 20 to 80%; in the assay on Lolium perenne [2], less than 20%; in assay [3], 20 to 80%; with Lolium perenne [4] it was less than 20%.
Turning to `CC(C(=O)O)N1C(=O)C2(CC2)Oc2cc(F)c(N3C(=O)c4ccc(F)cc4C3=O)cc21` (stereo not drawn) [Example 35], the pest or weed control at 200 g/ha is less than 20% in assay [1], less than 20% in the assay with Lolium perenne [2], 80 to 100% in assay [3] and less than 20% in the assay with Lolium perenne [4]. In addition, the pest or weed control at 1000 g/ha in assay [1] was in the range of 20 to 80%; with Lolium perenne [2], 20 to 80%; in assay [3] it was 80 to 100%; in the assay on Lolium perenne [4], 20 to 80%. For the same compound, the pest or weed control at 5000 g/ha in assay [1] was in the range of 20 to 80%; in the assay with Lolium perenne [2], 20 to 80%; in assay [3], 80 to 100%; in the assay with Lolium perenne [4], 20 to 80%.
Turning to `O=C1c2ccc(F)cc2C(=O)N1c1cc2c(cc1F)OC1(CC1)C(=O)N2CC1CO1` (stereo not drawn) [Example 36, 5-Fluoro-2-(7-fluoro-4-(oxiran-2-ylmethyl)-3-oxo-3,4-dihydrospiro[benzo[b][1,4]oxazine-2,1′-cyclopropan]-6-yl)isoindoline-1,3-dione], the pest or weed control at 200 g/ha in assay [1] is less than 20%; in the assay with Lolium perenne [2], less than 20%; in assay [3] it was 80 to 100%; with Lolium perenne [4], less than 20%. Further, the pest or weed control at 1000 g/ha in assay [1] was 20 to 80%; in the assay with Lolium perenne [2], 20 to 80%; in assay [3], 80 to 100%; in the assay on Lolium perenne [4] it was 20 to 80%. Also, the pest or weed control at 5000 g/ha in assay [1] fell in the range of 80 to 100%; in the assay with Lolium perenne [2], 20 to 80%; in assay [3], 80 to 100%; in the assay on Lolium perenne [4] it was 20 to 80%.
Turning to `C#CCN1C(=O)C2(CC2)Oc2cc(F)c(-n3c(=O)cc(C(F)(F)F)n(CC#C)c3=O)cc21` [Example 41], the pest or weed control at 200 g/ha was 80 to 100% in assay [1], 80 to 100% with Lolium perenne [2], 80 to 100% in assay [3] and less than 20% in the assay on Lolium perenne [4]. Besides, the pest or weed control at 1000 g/ha in assay [1] was 80 to 100%; in the assay with Lolium perenne [2], 80 to 100%; in assay [3], 80 to 100%; in the assay on Lolium perenne [4] it was 20 to 80%. Also, the pest or weed control at 5000 g/ha (in assay [1]; with Lolium perenne [2]; in assay [3]; with Lolium perenne [4]) was 80 to 100% throughout.
On to `C#CCN1C(=O)C2(CC2)Oc2cc(F)c(-n3c(=O)cc(C(F)(F)F)n(CC(=O)OC)c3=O)cc21` [Example 42], for which the pest or weed control at 200 g/ha was 20 to 80% in assay [1], less than 20% with Lolium perenne [2], 80 to 100% in assay [3] and 20 to 80% in the assay with Lolium perenne [4]. Moreover, the pest or weed control at 1000 g/ha in assay [1] lay in the range of 80 to 100%; in the assay with Lolium perenne [2], 20 to 80%; in assay [3], 80 to 100%; in the assay with Lolium perenne [4], 20 to 80%. The pest or weed control at 5000 g/ha lay in the range of 80 to 100% in assay [1], 20 to 80% with Lolium perenne [2], 80 to 100% in assay [3] and 80 to 100% with Lolium perenne [4].

Values taken from patent publication US11261177B2, “Benzoxazinone derivatives useful as herbicides” (REDAG CROP PROTECTION LTD, priority 2017, dated 2022).
